From PubChem BioAssay (NCI)
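Method: 48-hour compound exposure of cells in 96-well plates, five concentrations, linear interpolation of endpoints. Definition used: TGI = concentration required for complete inhibition of growth.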

Columns and labels:
Assay in all cases: DTP human tumour cell line panel, 48 h
786-0 renal = system: 786-0 renal
A549 NSCLC = system: A549 NSCLC
CCRF-CEM leukemia = system: CCRF-CEM leukemia
HCT-116 colon = system: HCT-116 colon
HT29 colon = system: HT29 colon
IGROV1 ovarian = system: IGROV1 ovarian
K-562 leukemia = system: K-562 leukemia
KM12 colon = system: KM12 colon
LOX IMVI melanoma = system: LOX IMVI melanoma
M14 melanoma = system: M14 melanoma
MOLT-4 leukemia = system: MOLT-4 leukemia
NCI/ADR-RES ovarian = system: NCI/ADR-RES ovarian
OVCAR-3 ovarian = system: OVCAR-3 ovarian
OVCAR-8 ovarian = system: OVCAR-8 ovarian
SK-MEL-28 melanoma = system: SK-MEL-28 melanoma
SR leukemia = system: SR leukemia
SW-620 colon = system: SW-620 colon
U251 CNS = system: U251 CNS
ACHN renal = system: ACHN renal
PC-3 prostate = system: PC-3 prostate

Compound	TGI (786-0 renal) [µM]	TGI (A549 NSCLC) [µM]	TGI (CCRF-CEM leukemia) [µM]	TGI (HCT-116 colon) [µM]	TGI (HT29 colon) [µM]	TGI (IGROV1 ovarian) [µM]	TGI (K-562 leukemia) [µM]	TGI (KM12 colon) [µM]	TGI (LOX IMVI melanoma) [µM]	TGI (M14 melanoma) [µM]	TGI (MOLT-4 leukemia) [µM]	TGI (NCI/ADR-RES ovarian) [µM]	TGI (OVCAR-3 ovarian) [µM]	TGI (OVCAR-8 ovarian) [µM]	TGI (SK-MEL-28 melanoma) [µM]	TGI (SR leukemia) [µM]	TGI (SW-620 colon) [µM]	TGI (U251 CNS) [µM]	TGI (ACHN renal) [µM]	TGI (PC-3 prostate) [µM]
COc1cccc(Cc2cc(=O)c3ccc(C)nc3[nH]2)c1	> 100	> 100	> 100	> 100	> 100	> 100	> 100	> 100	> 100	> 100	> 100	> 100	> 100	> 100	> 100	> 100	> 100	> 100	–	–
CC(=O)OCC(OC(C)=O)C(OC(C)=O)C(OC(C)=O)C(C=NN(C(C)=O)S(=O)(=O)c1ccc(/C=C2\NC(=O)NC2=O)cc1)OC(C)=O (configuration not stated)	> 100	> 100	> 100	> 100	> 100	> 100	> 100	> 100	> 100	> 100	> 100	> 100	> 100	> 100	–	–	> 100	> 100	> 100	> 100
COC(=O)/C=C\C(C#N)(C#N)N=Cc1ccc(Br)s1	12.9	45.4	5.5	34.8	–	31.9	> 100	32.6	7.39	8.86	> 100	45.2	23.3	19.1	33.7	–	5.53	38	6.1	26.8
CCCCCCCCCCCCCCCCOCC(CCl)OP(=O)(O)OP(=O)(O)OCC1OC(n2ccc(N)nc2=O)C(O)C1O (configuration not stated)	> 100	> 100	> 100	> 100	> 100	> 100	> 100	> 100	> 100	> 100	> 100	> 100	> 100	> 100	> 100	–	> 100	> 100	> 100	> 100
CNC(=O)CN(C)C(=O)CCC(=O)N(C)C	> 100	> 100	> 100	> 100	> 100	> 100	> 100	> 100	> 100	> 100	> 100	> 100	> 100	> 100	> 100	–	> 100	> 100	> 100	> 100
CNc1nnc(CNc2ccc(-c3nnc(NC)n3N)cc2)n1N	> 100	> 100	> 100	> 100	> 100	> 100	> 100	> 100	> 100	> 100	> 100	> 100	> 100	> 100	> 100	–	> 100	> 100	> 100	> 100
CCOP(=O)(OCC)[C@H]1OC(C)(C)O[C@@H]1CO	> 100	> 100	> 100	> 100	> 100	> 100	–	> 100	> 100	> 100	> 100	> 100	> 100	> 100	> 100	–	> 100	> 100	> 100	> 100
O=S(=O)(c1ccccc1)C1(CCC2OCCO2)C=CC2(CC1)OCCO2 (configuration not stated)	> 100	> 100	> 100	> 100	> 100	> 100	> 100	–	–	> 100	> 100	> 100	> 100	> 100	> 100	> 100	> 100	> 100	> 100	–
CC(C)SC(NC(=O)C1C(C)(C)CCC1(C)C)C(=O)O (configuration not stated)	> 100	> 100	> 100	> 100	–	> 100	> 100	–	> 100	> 100	–	> 100	–	> 100	> 100	–	> 100	> 100	> 100	> 100
O=c1[nH]cnc2c1CCCN2	> 100	> 100	> 100	> 100	> 100	> 100	> 100	> 100	> 100	> 100	> 100	–	> 100	> 100	> 100	> 100	> 100	> 100	> 100	–
COC(=O)c1c2c(cc3c1CC1(Cc4cc5c(cc4C1=O)CCC5)C3)CCC2 (configuration not stated)	> 100	> 100	> 100	> 100	> 100	> 100	> 100	> 100	> 100	> 100	> 100	–	> 100	> 100	> 100	–	> 100	> 100	> 100	> 100
